Laboratory results reported in patent US6867206B1, “6-carboxyphenyldihydropyridazinone derivatives and use thereof” (Bayer Aktiengesellschaft, priority 1999, dated 2005).

Structure (SMILES) | melting point [°C]
CCCOC(=O)c1ccc(C2=NNC(=O)CC2)cc1 [Example 31] | 283 to 284
CCC(C)OC(=O)c1ccc(C2=NNC(=O)CC2)cc1 (stereo not shown) [Example 33] | 120 to 122
COc1cccc(CCNC(=O)c2ccc(C3=NNC(=O)CC3C)cc2)c1 (stereo not shown) [Example 61] | 164 to 165
CCOC(=O)c1ccc(C2=NNC(=O)CC2)cc1 [Example 12] | 157 to 159
CN(C(=O)c1ccc(C2=NNC(=O)CC2)cc1)c1ccccc1 [Example 42] | 208 to 209
CC(NC(=O)c1ccc(C2=NNC(=O)CC2)cc1)c1ccccc1 (stereo not shown) [Example 23] | 242 to 243
O=C1CCC(c2ccc(C(=O)Nc3cccc(C(F)(F)F)c3)cc2)=NN1 [Example 28] | 229 to 230
CC(C)CCNC(=O)c1ccc(C2=NNC(=O)CC2C)cc1 (stereo not shown) [Example 58] | 152 to 153
CC(C)COC(=O)c1ccc(C2=NNC(=O)CC2)cc1 [Example 32] | 259 to 260
O=C1CCC(c2ccc(C(=O)NC3CC3)cc2)=NN1 [Example 11] | 248 to 250
NC(=O)c1ccsc1NC(=O)c1ccc(C2=NNC(=O)CC2)cc1 [Example 47] | > 250
CC(C)OC(=O)c1ccc(C2=NNC(=O)CC2)cc1 [Example 9] | 155 to 156
O=C1CCC(c2ccc(C(=O)OCC3CC3)cc2)=NN1 [Example 34] | 158 to 159
CC(OC(=O)c1ccc(C2=NNC(=O)CC2)cc1)C1CC1 (stereo not shown) [Example 38] | 104 to 105
O=C1CCC(c2ccc(C(=O)OCC3CCC3)cc2)=NN1 [Example 40] | 155 to 156
O=C1CCC(c2ccc(C(=O)N3CCCCC3)cc2)=NN1 [Example 19] | 182 to 184
CC1CC(=O)NN=C1c1ccc(C(=O)NC2CC2)cc1 (stereo not shown) [Example 57] | 216 to 217
CC1CC(=O)NN=C1c1ccc(C(=O)Nc2cccc3ccccc23)cc1 (stereo not shown) [Example 54] | 266 to 267
NC(=O)c1ccccc1NC(=O)c1ccc(C2=NNC(=O)CC2)cc1 [Example 51] | > 250

Structure (SMILES) | melting point [°C]
O=C1CCC(c2ccc(C(=O)N3CCOCC3)cc2)=NN1 [Example 29] | 202 to 203
O=C1CCC(c2ccc(C(=O)NC3CCCCC3)cc2)=NN1 [Example 27] | 249 to 250
CC(C)CNC(=O)c1ccc(C2=NNC(=O)CC2C)cc1 (stereo not shown) [Example 62] | 166 to 167
COc1ccc(CCNC(=O)c2ccc(C3=NNC(=O)CC3C)cc2)cc1OC (stereo not shown) [Example 63] | 146 to 147
C=CCOC(=O)c1ccc(C2=NNC(=O)CC2)cc1 [Example 36] | 131 to 133
CC1CC(=O)NN=C1c1ccc(C(=O)NCC(c2ccccc2)c2ccccc2)cc1 (stereo not shown) [Example 59] | 186 to 187
COC(=O)c1ccc(C2=NNC(=O)CC2)cc1 [Example 6] | 203 to 205
CN(CCOC(=O)c1ccc(C2=NNC(=O)CC2)cc1)Cc1ccccc1 [Example 37] | 90 to 91
O=C1CCC(c2ccc(C(=O)OC3CCCC3)cc2)=NN1 [Example 35] | 167 to 169
O=C1CCC(c2ccc(C(=O)Nc3c(Cl)cccc3Cl)cc2)=NN1 [Example 8] | > 250
O=C1CCC(c2ccc(C(=O)Nc3c(F)cccc3F)cc2)=NN1 [Example 45] | 278 to 279
O=C1CCC(c2ccc(C(=O)OCCc3ccccc3)cc2)=NN1 [Example 39] | 146 to 148
O=C1CCC(c2ccc(C(=O)N3CCCc4ccccc43)cc2)=NN1 [Example 25] | 215 to 216
CC1CC(=O)NN=C1c1ccc(C(=O)N2CCCc3ccccc32)cc1 (stereo not shown) [Example 56] | > 260
CC1CC(=O)NN=C1c1ccc(C(=O)Nc2ccc3ccccc3c2)cc1 (stereo not shown) [Example 55] | 271 to 272
COC(=O)c1ccc(NC(=O)c2ccc(C3=NNC(=O)CC3)cc2)o1 [Example 24] | > 260
COc1ccc(CCNC(=O)c2ccc(C3=NNC(=O)CC3C)cc2)cc1 (stereo not shown) [Example 60] | 245 to 246
CC1CC(=O)NN=C1c1ccc(C(=O)Nc2cccnc2)cc1 (stereo not shown) [Example 53] | 267 to 268

Now from value to molecule:

melting point [°C] | Structure (SMILES)
> 250 | Cc1ccc(NC(=O)c2ccc(C3=NNC(=O)CC3)cc2)cc1 [Example 21]
223 to 226 | O=C1CCC(c2ccc(C(=O)NCCc3ccccc3)cc2)=NN1 [Example 10]
228 to 230 | O=C1CCC(c2ccc(C(=O)NCc3ccccn3)cc2)=NN1 [Example 17]
220 to 223 | O=C1CCC(c2ccc(C(=O)NCc3cccnc3)cc2)=NN1 [Example 20]
208 to 209 | O=C1CCC(c2ccc(C(=O)NCc3ccccc3)cc2)=NN1 [Example 7]
156 to 157 | O=C1CCC(c2ccc(C(=O)OCc3ccccc3)cc2)=NN1 [Example 41]
209 to 210 | O=C1CCC(c2ccc(C(=O)Nc3ccccc3Cl)cc2)=NN1 [Example 18]
233 to 234 | CNC(=O)c1ccc(C2=NNC(=O)CC2)cc1 [Example 14]
189 to 190 | O=C1CCC(c2ccc(C(=O)NCCc3ccccc3F)cc2)=NN1 [Example 43]
186 to 187 | O=C1CCC(c2ccc(C(=O)NCc3ccccc3F)cc2)=NN1 [Example 49]
215 to 216 | O=C1CCC(c2ccc(C(=O)NCCc3cccs3)cc2)=NN1 [Example 44]
217 to 218 | CCCCNC(=O)c1ccc(C2=NNC(=O)CC2)cc1 [Example 4]
208 to 210 | O=C1CCC(c2ccc(C(=O)NCc3ccco3)cc2)=NN1 [Example 5]
> 250 | O=C1CCC(c2ccc(C(=O)Nc3ccccc3)cc2)=NN1 [Example 13]
> 250 | O=C1CCC(c2ccc(C(=O)Nc3cccc(Cl)c3)cc2)=NN1 [Example 22]
258 to 260 | O=C1CCC(c2ccc(C(=O)NCc3cccc4ccccc34)cc2)=NN1 [Example 16]
208 to 209 | O=C1CCC(c2ccc(C(=O)NCc3ccc(Cl)c(Cl)c3)cc2)=NN1 [Example 30]
228 to 230 | CCNC(=O)c1ccc(C2=NNC(=O)CC2)cc1 [Example 15]
